Measurements reported in patent publication US20060068007A1, “Class of surfactant-like materials” (Boehringer Ingelheim Pharmaceuticals, Inc., priority 2004, published 2006).

Assay: Solubility of the active agent depending on pH
Type: physicochemical
Conditions: basic conditions
Method: The tablets were prepared similarly as described in Example 3.

COc1ccc2c(O[C@@H]3C[C@H]4C(=O)N[C@]5(C(=O)O)CC5/C=C\CCCCC[C@H](NC(=O)OC5CCCC5)C(=O)N4C3)cc(-c3csc(NC(C)C)n3)nc2c1 (stereo partly drawn) [(Z)-(1S,4R,14S,18R)-14-Cyclopentyloxycarbonylamino-18-[2-(2-isopropylamino-thiazol-4-yl)-7-methoxy-quinolin-4-yloxy]-2,15-dioxo-3,16-diaza-tricyclo[14.3.0.0^4,6]nonadec-7-ene-4-carboxylic acid]
solubility: higher solubility in basic conditions
